Reference: patent US10125135B2, “Chemical compounds” (AstraZeneca AB, priority 2016, dated 2018)
In brackets after ≈: the same amount, converted by molar mass.

What was measured:
[1] = biological target: ERα receptor in MCF-7 human ductal carcinoma breast cell line (Homo sapiens (Human), UniProt P03372); assay: MCF-7 ER down regulation assay (immuno-fluorescence); type: cell-based; settings: MCF-7 cells, 18-22 hours incubation; read-out: ER down regulation IC50 value
[2] = biological target: estrogen receptor (ERα) in CAMA-1 human breast cancer cell line (Homo sapiens (Human), UniProt P03372); assay: Western blotting assay, CAMA-1 cells; type: cell-based; settings: 100 nM compound, 48 h; normalised to vehicle (0%) and 100 nM fulvestrant (100%)
Protocol: (§1) The ability of compounds to down-regulate estrogen receptor (ER) was assessed by western blotting using human breast cancer cell lines (MCF-7 and CAMA-1). Cells were plated into 12-well tissue culture-treated plates at 0.5×10^6/well in phenol red-free RPMI containing 2 mM L-glutamine and 5% (v/v) charcoal treated foetal calf serum (F6765, Sigma). Cells were incubated with compounds (100 nM) or vehicle control (0.1% DMSO) for 48 h at 37° C., 5% CO2 before washing once with PBS and lysing with 80 μl lysis buffer (25 mM Tris/HCl, 3 mM EDTA, 3 mM EGTA, 50 mM NaF, 2 mM sodium orthovanadate, 0.27 M sucrose, 10 mM β-glycerophosphate, 5 mM sodium pyrophosphate, 0.5% TritonX-100, pH 6.8) on ice.
(§2) Cells were scraped, sonicated and centrifuged prior to performing a protein assay (DC Bio-Rad Protein kit, 500-0116) and making samples to a protein concentration of 1-2 mg/m1 in lysis buffer containing 1× LDS Sample Buffer (NP0007, Invitrogen) and 1× NuPAGE sample reducing agent (NP0009, Invitrogen). Samples were boiled for 10 min at 95° C. and then frozen at −20° C. until ready for use.
(§3) 10-20 μg protein was loaded onto 26-well Criterion gels (BioRad 345-0034). Gels were run at 125 V for 1 hr 25 min in running buffer (24 mM Tris Base Sigma, 192 mM Glycine, 3.5 mM SDS, made up in distilled water). Gels were then transferred at 30V for 2 hr in transfer buffer (25 mM Tris, 192 mM Glycine, 20% (v/v) methanol, pH 8.3, made up in distilled water) onto nitrocellulose membrane. The blot was stained with Ponceau S (P7170, Sigma) and cut according to appropriate molecular weight markers.
(§4) Membranes were blocked for 1 hour at room temp in 5% Marvel (w/v) in phosphate-buffered saline containing 0.05% Tween™ 20 (PBS/Tween). Blots were then incubated with anti-ERα (SP1) rabbit monoclonal antibody (Thermofisher) diluted 1:1000 at 4° C. overnight (with gentle shaking) followed by several washes with PBS/Tween. Secondary anti-rabbit HRP antibody (7074, CST) diluted 1:2000 dilution was incubated for 2 h at room temperature (with gentle shaking) followed by several washes with PBS/Tween. All antibodies were made up in 5% Marvel (w/v) in PBS/Tween.
(§5) The immunoblots were developed using Pierce WestDura chemiluminescent reagents (Thermo Scientific 34076) and developed/quantified on the G-box using Syngene software. Down-regulation of the ERα receptor was normalised to the vehicle control (0% down-regulation) and the 100 nM fulvestrant control (100% down-regulation) run within the same gel.

[3] = biological target: estrogen receptor (ERα) in MCF-7 human breast cancer cell line (Homo sapiens (Human), UniProt P03372); assay: Western blotting assay, MCF-7 cells; type: cell-based; settings: 100 nM compound, 48 h; normalised to vehicle (0%) and 100 nM fulvestrant (100%)
Protocol: as §1, §2, §3, §4, §5

[4] = logD shake flask, 1-octanol/aqueous buffer; type: physicochemical; settings: pH 7.4
Excerpt: The lipophilicity of a drug is an important physical property which may influence many biological and metabolic properties of a compound. The distribution coefficient between 1-octanol and aqueous buffer, Log DO/W, at pH 7.4, is the most commonly used measurement of the lipophilicity of a compound. The current method for measurement of Log DO/W is based on the traditional shake flask technique, but with the modification of measuring compounds in mixtures of ten at a time using UPLC with quantitative mass spectrometry (MS) as a method to measure the relative octanol and aqueous concentrations. […] An additional QC sample Caffeine, with low Log D, are used and randomly placed in all runs. The method has been thoroughly validated against the previous shake flask methodologies.

[5] = Thermodynamic solubility, shake-flask; type: physicochemical; settings: thermodynamic from solid; aqueous phosphate buffer pH 7.4, 24 hours at 25° C.
Protocol: The thermodynamic solubility of a research compound is measured under standard conditions. It is a shake-flask approach that uses 10 mM DMSO solutions which are supplied from the Compound Managements liquid store and is a high throughput method. The dried compounds are equilibrated in an aqueous phosphate buffer (pH 7.4) for 24 hours at 25° C., the portion with the dissolved compound is then separated from the remains. The solutions are analyzed and quantified using UPLC/MS/MS, QC-samples are incorporated in each assay-run to ensure the quality of the assay.

[6] = Human plasma protein binding, equilibrium dialysis (RED); type: in vitro ADME; settings: dialysis for 18 hours
Protocol: Human Plasma Protein Binding
The automated equilibrium dialysis assay in human plasma uses the RED (Rapid Equilibrium Dialysis) Device and sample handling. The assay generally runs over two to three days including delivery of results. After dialysis for 18 hours, plasma and buffer samples are prepared for analysis by liquid chromatography and mass spectrometry. Samples are generally tested in singlicates and quantified by LC/MSMS by using a 7-point calibration curve in plasma. The compounds are pooled together in plasma pools up to 10 compounds. Three reference compounds are used in each run, Propranolol, Metoprolol and Warfarin. Warfarin is used as a control in each pool and Propranolol and Metoprolol are placed randomly in each run. An in-house Excel macro is used for preparation of files for the robot and the mass spectrometer and also used for the calculations of fraction unbound (fu %) in plasma.

ERα receptor = ERα receptor (Homo sapiens (Human), UniProt P03372); settings: 500mg monthly dose; cited from earlier work
Sequence of ERα receptor (P03372 whole entry): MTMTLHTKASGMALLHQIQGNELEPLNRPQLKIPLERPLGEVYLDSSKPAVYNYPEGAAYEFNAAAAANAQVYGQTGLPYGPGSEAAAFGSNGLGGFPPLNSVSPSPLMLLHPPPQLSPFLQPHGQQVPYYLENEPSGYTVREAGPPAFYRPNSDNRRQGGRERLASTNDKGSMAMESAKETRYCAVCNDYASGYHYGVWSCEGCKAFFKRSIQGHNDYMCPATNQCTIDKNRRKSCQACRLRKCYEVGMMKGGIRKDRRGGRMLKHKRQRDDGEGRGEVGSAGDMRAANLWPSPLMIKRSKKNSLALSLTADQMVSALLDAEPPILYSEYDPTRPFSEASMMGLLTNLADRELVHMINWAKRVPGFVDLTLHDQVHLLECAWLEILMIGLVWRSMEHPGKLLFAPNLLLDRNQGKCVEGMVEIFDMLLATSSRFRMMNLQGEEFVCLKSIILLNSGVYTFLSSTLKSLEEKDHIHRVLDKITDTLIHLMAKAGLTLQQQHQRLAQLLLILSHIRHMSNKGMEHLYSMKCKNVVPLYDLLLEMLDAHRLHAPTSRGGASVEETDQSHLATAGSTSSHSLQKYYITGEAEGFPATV

Sequence of ERα receptor in MCF-7 human ductal carcinoma breast cell line (P03372 whole entry): as above
Sequence of estrogen receptor (ERα) in MCF-7 human breast cancer cell line (P03372 whole entry): as above
Sequence of estrogen receptor (ERα) in CAMA-1 human breast cancer cell line (P03372 whole entry): as above

Row | SMILES | DC50 [1] | CAMA1 Western % ER deg vs Fv [2] | MCF7 Western % ER deg vs Fv [3] | logD [4] | solubility at 24 h [5] | Human plasma protein binding (% free) [6] | turnover of the receptor in patient samples (ERα receptor)
1 | COCC(F)(F)CN1[C@H](c2ccc(OCCN3CC(CF)C3)cn2)c2ccc3[nH]ncc3c2C[C@H]1C [Example 10, (6S,8R)-7-(2,2-difluoro-3-methoxypropyl)-6-(5-(2-(3-(fluoromethyl)azetidin-1-yl)ethoxy)pyridin-2-yl)-8-methyl-6,7,8,9-tetrahydro-3H-pyrazolo[4,3-f]isoquinoline] | 0.51 nM | 66% | 87% | 2.4 | 811 µM (≈ 408 µg/mL) | 27 % free | –
2 | COc1cc(OCCN2CC(CF)C2)ccc1[C@@H]1c2ccc3[nH]ncc3c2C[C@@H](C)N1CC(F)F [Example 7, (6S,8R)-7-(2,2-difluoroethyl)-6-(4-(2-(3-(fluoromethyl)azetidin-1-yl)ethoxy)-2-methoxyphenyl)-8-methyl-6,7,8,9-tetrahydro-3H-pyrazolo[4,3-f]isoquinoline] | 0.085 nM | 95% | 100% | 3.4 | 364 µM (≈ 178 µg/mL) | 11 % free | –
3 | C[C@]12CC[C@@H]3c4ccc(O)cc4C[C@@H](CCCCCCCCC[S+]([O-])CCCC(F)(F)C(F)(F)F)[C@H]3[C@@H]1CC[C@@H]2O (stereo partly shown) [Fulvestrant, fulvestrant] | – | – | – | – | – | – | less than 50%
